For assay [1], the target named is T1, SDH/Complex II, isolated rat liver mitochondria (Rattus norvegicus, UniProt P21913+Q641Z9+Q6PCT8).
T1 construct: Rat liver mitochondria were prepared by differential centrifugation; from tissue; host or cells: rat liver mitochondria / sub-mitochondrial particles
The assay is described as follows: SDH/Complex II activity, DCIP/PMS assay. As to conditions: 100 or 300 μM α-TOS; compared to control. The format is biochemical. Here is the method:
Preparation of sub-mitochondrial particles (SMPs) from isolated rat liver. Rat liver mitochondria were prepared by differential centrifugation according to the modified method of Rice and Lindsay, 1997. 2 ml of mitochondrial pellet were resuspended in 15 ml of 20 mM KH2 PO4 pH 7.4 and sonicated at a setting of 80 Watt for 3×15 s. The sonicated solution was then centrifuged at 6,500×g for 7 min. The supernatant fraction was kept on ice and the remaining pellet resuspended and sonicated again. The sonicated solution was centrifuged as before and the supernatant removed from the second centrifugation step combined with that from the first centrifrugation. The combined supernatant was recentrifitged at 108,000×g for 1 h. The pellet of SMPs was resuspended in 5 ml of 20 mM KH2PO4 pH 7.4 and stored frozen at −20° C. until used.
Measurement of mitochondrial complex II and complex I activity. A time course for the reduction of the complex II substrate 2,6-dichlorophenol indophenol (DCIP) by the mitochondrial preparations was followed by measuring the absorbance at 600 nm in 1 cm cuvettes containing a 1 ml reaction volume (ε600=21×10^3 M^−1cm^−1). The reaction components included NADH, 0.5 mM; succinate, 5 mM; KCN, 10 mM; DCIP, 50 μM; PMS, 50 μM. […] The change in absorbance of DCIP was measured using a spectrophotometer (UVIKON XL, Secomam) and replicate samples were assayed (n=3). […]

In assay [2] the target is T2, SDH/Complex II, Paracoccus denitrificans membranes (Paracoccus denitrificans, UniProt Q59659+Q59660+Q59662).
T2 construct: Membranes were prepared from harvested cells by treating with lysozyme; endogenous in cells; host or cells: membrane vesicles of P. denitrificans CCM 982 (NCIB 8944), endogenous enzyme
As to the kind of experiment: SDH/Complex II activity, DCIP/PMS assay. Format: biochemical. As to conditions: 100 or 300 μM α-TOS; compared to control. Here is the method: Preparation of membrane vesicles from Paracoccus denitrificans. P. denitrificans CCM 982 (NCIB 8944) was grown anaerobically at 30° C. in a medium containing 50 mM succinate as the carbon source and 10 mM nitrate as the terminal acceptor. Membranes were prepared from harvested cells by treating with lysozyme according to Burnell et al (1975). After dilution in 0.1 M Na phosphate, pH 7.3, to a final protein concentration of approximately 20 mg/ml, the membranes were stored at −20° C. in 1 ml aliquots until used. The protein concentration was determined using the bicinchoninic acid method and an iEMS plate reader (Labsystem, Finland).
(§1) Measurement of mitochondrial complex II and complex I activity. A time course for the reduction of the complex II substrate 2,6-dichlorophenol indophenol (DCIP) by the mitochondrial preparations was followed by measuring the absorbance at 600 nm in 1 cm cuvettes containing a 1 ml reaction volume (ε600=21×10^3 M^−1cm^−1). The reaction components included NADH, 0.5 mM; succinate, 5 mM; KCN, 10 mM; DCIP, 50 μM; PMS, 50 μM. For each assay point, 0.5 mg sample protein was used and α-TOS was added at either 100 or 300 μM as indicated. The change in absorbance of DCIP was measured using a spectrophotometer (UVIKON XL, Secomam) and replicate samples were assayed (n=3). When measuring the complex I (NADH dehydrogenase activity), PMS was omitted. […]

Assay [3] relates to NADH dehydrogenase (complex I). As to the kind of experiment: Complex I (NADH dehydrogenase) activity. Format: biochemical. As to conditions: data not shown. How it is done:
as §1
Additional support for the role of α-TOS in inhibiting mitochondrial respiratory complex II activity was sought by isolating subcellular fractions containing mitochondrial preparations from rat liver as well as membranous fractions from P. denitrificans. For these studies, the assay method of SDH/Complex II activity was based on that of King (1967) using phenazine methosulphate (PMS) and the terminal electron acceptor, 2,6-dichloroindophenol (DCIP) as the indicator dye by following the decrease in absorbance at 600 nm as it was reduced by SDH driven under conditions of high succinate. […]

Assay [4] relates to erbB2 highly positive breast carcinomas.
Method: (A) Nude mice were inoculated with MCF-7 cells and, after tumors became established, the animals were treated once every 3 d with 10 μmoles per mouse of α-TOS dissolved in DMSO or with DMSO alone, by intraperitoneal (i.p.) injection. Tumor size was measured using calipers and was correlated to the size of the carcinomas at the onset of the therapy. Four animals were used in each group. The results shown are mean values±S.E. The symbol ‘*’ denotes significant difference (p<0.05). (B) Female FVB/N erbB2 mice with palpable tumors (see General Materials and Methods) received either 10 μmoles α-TOS solubilized in corn oil/4% ethanol (n=11) or the corn oil/4% ethanol alone (control, n=9) by i.p. injection once every 3 d, or 0.2 μmoles 3-BP (n=8) in PBS at the tumor site every day. Tumor size was recorded using calipers. Two independent experiments were conducted. Results are represented as mean values±S.E. The symbol ‘*’ denotes significant difference (p<0.05) in the analysis of variance between the 3-BP and α-TOS curves.
Mouse tumor experiments. Nude mice were inoculated subcutaneously with MCF-7 cells (2×10^6 cells/mouse). After tumors developed (diameter of 3-7 mm), mice were injected intraperitoneally with 10 μmoles α-TOS in DMSO every 3 days. Control mice were injected with an equal volume (100 μl) of DMSO only. Tumor size was estimated by measuring with digital calipers. A colony of transgenic FVB/N2O2 rat c-neu mice carrying the rat HER-2/neu protooncogene driven by the MMTV promoter on the H-2^q FVB/N background (Guy et al, 1992) was established at the Griffith University Animal Facility and maintained under strict inbreeding conditions. The presence of the transgene was routinely confirmed by PCR. Approximately 70% of the female mice developed spontaneous mammary carcinomas with a mean latency time of 10 months. Female transgenic FVB/N2O2 rat c-neu mice bearing progressively growing tumors with a mean diameter of 10±5 mm were randomly assigned to control or treatment groups. Tumor size was measured using digital calipers. […]

T1 sequence (P21913 31-282): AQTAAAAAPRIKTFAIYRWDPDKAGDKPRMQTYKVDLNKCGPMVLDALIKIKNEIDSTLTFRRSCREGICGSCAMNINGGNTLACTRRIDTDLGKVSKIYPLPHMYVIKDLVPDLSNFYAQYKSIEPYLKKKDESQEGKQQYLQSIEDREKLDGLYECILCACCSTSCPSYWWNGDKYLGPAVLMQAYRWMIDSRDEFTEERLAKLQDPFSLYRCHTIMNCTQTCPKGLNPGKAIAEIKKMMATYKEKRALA
T1 sequence (Q641Z9 30-169 limits assumed): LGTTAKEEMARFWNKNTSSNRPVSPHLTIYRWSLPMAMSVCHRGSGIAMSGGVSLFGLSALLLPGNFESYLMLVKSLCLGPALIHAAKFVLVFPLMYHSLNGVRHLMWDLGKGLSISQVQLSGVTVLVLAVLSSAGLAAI
T1 sequence (Q6PCT8 57-159): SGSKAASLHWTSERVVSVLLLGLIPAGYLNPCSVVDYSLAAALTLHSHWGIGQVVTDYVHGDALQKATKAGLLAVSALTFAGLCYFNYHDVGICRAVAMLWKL
T1 sequence (Q920L2 35-656 partner): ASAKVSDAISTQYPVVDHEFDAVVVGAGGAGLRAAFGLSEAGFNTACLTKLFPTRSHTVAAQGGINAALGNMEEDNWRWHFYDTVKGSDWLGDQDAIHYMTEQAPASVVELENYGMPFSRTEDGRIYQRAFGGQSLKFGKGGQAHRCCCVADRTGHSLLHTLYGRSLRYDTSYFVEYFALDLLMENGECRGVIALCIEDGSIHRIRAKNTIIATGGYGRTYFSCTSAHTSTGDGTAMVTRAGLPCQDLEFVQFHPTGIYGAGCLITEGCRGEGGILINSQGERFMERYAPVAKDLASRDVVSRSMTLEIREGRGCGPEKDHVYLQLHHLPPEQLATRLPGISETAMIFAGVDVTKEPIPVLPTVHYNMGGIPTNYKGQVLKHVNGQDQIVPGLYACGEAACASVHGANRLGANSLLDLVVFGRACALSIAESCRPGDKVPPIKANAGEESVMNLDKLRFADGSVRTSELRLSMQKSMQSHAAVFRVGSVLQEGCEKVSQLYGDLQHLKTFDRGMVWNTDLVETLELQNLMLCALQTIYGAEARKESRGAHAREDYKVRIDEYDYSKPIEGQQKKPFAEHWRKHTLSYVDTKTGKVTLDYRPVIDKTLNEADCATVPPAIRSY
T2 sequence (Q59662 whole entry): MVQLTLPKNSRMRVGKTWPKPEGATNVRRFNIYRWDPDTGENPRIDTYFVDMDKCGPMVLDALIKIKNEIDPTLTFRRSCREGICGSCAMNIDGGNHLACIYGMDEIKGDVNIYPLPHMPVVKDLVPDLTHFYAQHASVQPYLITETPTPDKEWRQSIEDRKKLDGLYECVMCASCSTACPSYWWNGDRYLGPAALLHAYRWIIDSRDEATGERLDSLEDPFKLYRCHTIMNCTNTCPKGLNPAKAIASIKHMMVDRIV
T2 sequence (Q59660 whole entry): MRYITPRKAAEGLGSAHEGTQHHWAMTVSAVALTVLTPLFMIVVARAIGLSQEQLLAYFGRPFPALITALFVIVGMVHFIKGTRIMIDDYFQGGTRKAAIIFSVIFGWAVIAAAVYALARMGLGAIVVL
T2 sequence (Q59659 whole entry): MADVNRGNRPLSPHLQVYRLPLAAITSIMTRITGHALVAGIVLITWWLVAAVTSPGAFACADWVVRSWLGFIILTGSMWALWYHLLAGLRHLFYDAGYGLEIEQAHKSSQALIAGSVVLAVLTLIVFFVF
T2 sequence (Q59661 whole entry, further chain): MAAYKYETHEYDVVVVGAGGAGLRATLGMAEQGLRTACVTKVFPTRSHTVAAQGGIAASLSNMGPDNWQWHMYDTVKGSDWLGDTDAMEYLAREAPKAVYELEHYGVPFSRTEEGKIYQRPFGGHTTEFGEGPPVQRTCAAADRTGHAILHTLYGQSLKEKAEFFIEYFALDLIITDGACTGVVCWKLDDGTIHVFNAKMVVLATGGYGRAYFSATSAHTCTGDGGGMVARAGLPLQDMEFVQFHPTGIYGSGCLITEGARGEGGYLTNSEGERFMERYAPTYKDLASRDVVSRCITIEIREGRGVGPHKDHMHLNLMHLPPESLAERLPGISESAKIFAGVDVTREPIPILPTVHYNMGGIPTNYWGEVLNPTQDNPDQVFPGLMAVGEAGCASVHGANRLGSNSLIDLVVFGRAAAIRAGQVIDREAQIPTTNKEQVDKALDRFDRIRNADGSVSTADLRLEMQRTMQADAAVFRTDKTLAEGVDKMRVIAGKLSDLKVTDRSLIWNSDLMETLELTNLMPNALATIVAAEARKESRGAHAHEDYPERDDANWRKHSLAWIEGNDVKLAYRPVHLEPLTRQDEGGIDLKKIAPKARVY

In the case of `Cc1c(C)c2c(c(C)c1OC(=O)CCC(=O)O)CC[C@@](C)(CCC[C@H](C)CCC[C@H](C)CCCC(C)C)O2` [Compound 1, α-tocopheryl succinate], the “rate of reduction of DCIP (SDH/Complex II activity)” value in assay [1] is “decreased rapidly and significantly after treatment with α-TOS”; in assay [2], “decreased rapidly and significantly after treatment with α-TOS”. The “NADH dehydrogenase (complex I) activity” value in assay [3] is recorded as “no effect”. In addition, in assay [4] (about, over the 2 weeks of treatment, 10 μmoles i.p. every 3 d), the “reduction in the average size of tumors” value is recorded as 30-40%. The “tumor growth” value in assay [4] (α-TOS 10 μmoles i.p. every 3 d, 3-BP 0.2 μmoles daily intratumorally) is listed as “statistically more effective (p<0.05 by analysis of covariance) than 3-BP”.

Values taken from patent US8410056B2, “Pro-oxidant anti-cancer compounds” (priority 2006, dated 2013).
